The source of these data is US11952349B2, “Anti-cancer nuclear hormone receptor-targeting compounds” (Nuvation Bio Inc., priority 2019, dated 2024).

The target of experiment [1] is T1, full-length androgen receptor (Homo sapiens, UniProt P10275).
T1 construct: HEK293 cells stably expressing the full-length androgen receptor; expressed in transfected cells
T1 sequence (P10275 1-920): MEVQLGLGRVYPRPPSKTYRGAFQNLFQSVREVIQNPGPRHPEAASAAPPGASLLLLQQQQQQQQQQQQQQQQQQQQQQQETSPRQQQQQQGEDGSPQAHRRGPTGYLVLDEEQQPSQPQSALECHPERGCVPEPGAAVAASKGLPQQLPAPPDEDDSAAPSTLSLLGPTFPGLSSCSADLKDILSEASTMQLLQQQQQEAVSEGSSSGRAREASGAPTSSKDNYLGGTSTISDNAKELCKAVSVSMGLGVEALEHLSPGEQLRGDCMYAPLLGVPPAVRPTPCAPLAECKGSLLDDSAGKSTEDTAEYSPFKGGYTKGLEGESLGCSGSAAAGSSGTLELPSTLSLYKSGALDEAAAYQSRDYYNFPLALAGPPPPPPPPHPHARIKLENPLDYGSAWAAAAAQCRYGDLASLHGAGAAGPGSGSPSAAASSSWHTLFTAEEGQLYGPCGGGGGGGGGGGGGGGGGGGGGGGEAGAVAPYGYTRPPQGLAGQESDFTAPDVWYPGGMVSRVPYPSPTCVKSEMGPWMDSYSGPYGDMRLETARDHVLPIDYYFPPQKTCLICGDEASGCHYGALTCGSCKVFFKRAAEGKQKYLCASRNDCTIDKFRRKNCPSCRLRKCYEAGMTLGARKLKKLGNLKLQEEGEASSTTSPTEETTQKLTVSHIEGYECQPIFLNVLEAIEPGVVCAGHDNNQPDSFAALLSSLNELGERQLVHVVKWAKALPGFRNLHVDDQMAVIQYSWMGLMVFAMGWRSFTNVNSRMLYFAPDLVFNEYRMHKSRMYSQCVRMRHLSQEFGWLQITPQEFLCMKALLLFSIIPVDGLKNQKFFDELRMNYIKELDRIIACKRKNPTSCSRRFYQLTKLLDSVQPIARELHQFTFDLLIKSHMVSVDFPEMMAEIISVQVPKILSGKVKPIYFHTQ
Put plainly: AR antagonism assay (HEK293, testosterone 1 nM, Steady-glo). The format is cell-based. The protocol: AR antagonism assay: To evaluate AR antagonist activity, test compound was added to the assay plate (top dose 10 μM, 3 fold serial dilution, 10 point dose response). HEK293 cells stably expressing the full-length androgen receptor were seeded at a density of 20000 cells/well in the assay plate. The assay plate was then incubated at room temperature for 10 minutes and at 37° C., 5% CO2 for 20 minutes. Testosterone was added to the assay plate at 1 nM final concentration and the assay plate was incubated at 37° C., 5% CO2 for 20 h. After the incubation period, Steady-glo was added to the assay plate and mixed at room temperature for 20 minutes on an orbital shaker, before reading out on the EnVision plate reader.

Experiment [2] concerns the target T2, AR, cytosol from LnCaP cells (Homo sapiens, UniProt P10275, T878A).
T2 construct: AR in LNCaP cytosol was used; endogenous in cells; host or cells: LNCaP cells (cytosol)
T2 sequence (P10275 1-920 T878A): T1 sequence (P10275 1-920) with T878A
The experiment is described as follows: AR binding assay, 3H-R1881 (Biological Example 2). The procedure: AR binding assay: To assess AR binding, test compound (top dose […], 4 fold serial dilution, 8 point dose response) and control (progesterone) were transferred to the assay plate. Cytosol from LnCaP cells was added to the plate, followed by addition of radiolabeled ^3H-R1881 at a final concentration of 1 nM. The plate was sealed, and the reaction was incubated at 300 rpm at 4° C. for 24 hrs. Radioligand absorption buffer (10 mM Tris-HCl, pH 7.4; 1.5 mM EDTA; 1 mM DTT; 0.25% charcoal; 0.0025% dextran) was then added to the plate, mixed, and incubated at 4° C. for 15 minutes. The plate was then centrifuged at 3000 rpm for 30 minutes at 4° C. The supernatant was transferred to the scint-tube and Tri-carb was used for scintillation counting. The data was analyzed using GraphPadPrism v5.0 and binding IC50 was determined as the concentration where 50% inhibition of radioligand binding was observed.

The mark [3] stands for this setting: Table 7, testosterone 1 nM, read-out: AR antagonism.
The mark [4] stands for this setting: Table 8, testosterone 1 nM, read-out: AR antagonism.
Where [5] appears, read: Table 8, 3H-R1881 1 nM, read-out: AR binding.

The structures appear in SMILES notation. Substitutions are numbered along the chain they refer to. Where two headings read alike, the source gives them in different places.

For `C[C@]12Cc3cn[nH]c3C[C@@H]1CC[C@@H]1[C@@H]2CC[C@]2(C)[C@@H](OCCCCCC(=O)N3CCN(C(=O)c4cc(Cc5n[nH]c(=O)c6ccccc56)ccc4F)CC3)CC[C@@H]12` [Compound 1394, 4-(3-(4-(6-(((1S,3aS,3bR,5aS,10aS,10bS,12aS)-10a,12a-dimethyl-1,2,3,3a,3b,4,5,5a,6,7,10,10a,10b,11,12,12a-hexadecahydrocyclopenta[5,6]naphtho[1,2-f]indazol-1-yl)oxy)hexanoyl)piperazine-1-carbonyl)-4-fluorobenzyl)phthalazin-1(2H)-one], the values for the IC50 in experiment [1] (setting [3]) and in experiment [2] were 1000 to 10000 nM and 100 to 1000 nM, respectively.

Consider `C[C@]12C[C@H](CCCCCC(=O)N3CCN(C(=O)c4cc(Cc5n[nH]c(=O)c6ccccc56)ccc4F)CC3)C3=C4CCC(=O)C=C4CC[C@H]3[C@@H]1CCC2O` (stereo partly drawn) [Compound 138, 4-(4-fluoro-3-(4-(6-((8S,11S,13S,14S)-17-hydroxy-13-methyl-3-oxo-2,3,6,7,8,11,12,13,14,15,16,17-dodecahydro-1H-cyclopenta[a]phenanthren-11-yl)hexanoyl)piperazine-1-carbonyl)benzyl)phthalazin-1(2H)-one], for which the results for the IC50 in experiment [1] and in experiment [2] were 100 to 1000 nM and 10 to 100 nM, respectively.

Take `CC#C[C@]1(O)CC[C@H]2[C@@H]3CCC4=CC(=O)CCC4=C3[C@@H](c3ccc(N(C)CCCCCC(=O)N4CCN(C(=O)c5cc(Cc6n[nH]c(=O)c7ccccc67)ccc5F)CC4)cc3)C[C@@]21C` [Compound 135, 4-(4-fluoro-3-(4-(6-((4-((8S,11R,13S,14S,17S)-17-hydroxy-13-methyl-3-oxo-17-(prop-1-ynyl)-2,3,6,7,8,11,12,13,14,15,16,17-dodecahydro-1H-cyclopenta[a]phenanthren-11-yl)phenyl)(methyl)amino)hexanoyl)piperazine-1-carbonyl)benzyl)phthalazin-1(2H)-one]: the IC50 in experiment [1] (setting [4]) was in the range of 100 to 1000 nM; in experiment [2] (setting [5]), 10 to 100 nM.

Turning to `C[C@@]12CCC(=O)C[C@H]1CC[C@H]1[C@H]2CC[C@]2(C)[C@@H]1CC[C@H]2OCCCCCCNC(=O)c1cc(Cc2n[nH]c(=O)c3ccccc23)ccc1F` (stereo in doubt) [Compound 1426, N-(6-((5R,8S,9R,10R,13R,14R,17R)-10,13-dimethyl-3-oxohexadecahydro-1H-cyclopenta[a]phenanthren-17-yloxy)hexyl)-2-fluoro-5-((4-oxo-3,4-dihydrophthalazin-1-yl)methyl)benzamide], the IC50 in experiment [1] and in experiment [2] was 100 to 1000 nM in each case.

In the case of `CC#C[C@]1(O)CC[C@H]2[C@@H]3CCC4=CC(=O)CCC4=C3[C@@H](c3ccc(N(C)CCCCCC(=O)NCCOCCOCC(=O)N4CCN(C(=O)c5cc(Cc6n[nH]c(=O)c7ccccc67)ccc5F)CC4)cc3)C[C@@]21C` [Compound 1429, N-(2-(2-(2-(4-(2-fluoro-5-((4-oxo-3,4-dihydrophthalazin-1-yl)methyl)benzoyl)piperazin-1-yl)-2-oxoethoxy)ethoxy)ethyl)-6-((4-((8S,11R,13S,14S,17S)-17-hydroxy-13-methyl-3-oxo-17-(prop-1-ynyl)-2,3,6,7,8,11,12,13,14,15,16,17-dodecahydro-1H-cyclopenta[a]phenanthren-11-yl)phenyl)(methyl)amino)hexanamide], the figures for the IC50 in experiment [1] (setting [4]) and in experiment [2] (setting [5]) were > 10000 nM and 10 to 100 nM, respectively.

On to `CC(=O)O[C@]1(C(C)=O)CC[C@H]2[C@@H]3CCC4=CC(=O)CCC4=C3[C@@H](c3ccc(N(C)CCCCCC(=O)NCCOCCOCC(=O)N4CCN(C(=O)c5cc(Cc6n[nH]c(=O)c7ccccc67)ccc5F)CC4)cc3)C[C@@]21C` [Compound 1384, (8S,11R,13S,14S,17R)-17-acetyl-11-(4-((6-(2-(2-(2-(4-(2-fluoro-5-((4-oxo-3,4-dihydrophthalazin-1-yl)methyl)benzoyl)piperazin-1-yl)-2-oxoethoxy)ethoxy)ethylamino)-6-oxohexyl)(methyl)amino)phenyl)-13-methyl-3-oxo-2,3,6,7,8,11,12,13,14,15,16,17-dodecahydro-1H-cyclopenta[a]phenanthren-17-yl acetate], for which the IC50 was > 10000 nM in experiment [1] (setting [4]) and < 10 nM in experiment [2] (setting [5]).

Take `CC(=O)O[C@]1(C(C)=O)CC[C@H]2[C@@H]3CCC4=CC(=O)CCC4=C3[C@@H](c3ccc(N(C)CCCCCC(=O)N4CCN(C(=O)c5cc(Cc6n[nH]c(=O)c7ccccc67)ccc5F)CC4)cc3)C[C@@]21C` [Compound 1378, (8S,11R,13S,14S,17R)-17-acetyl-11-(4-((6-(4-(2-fluoro-5-((4-oxo-3,4-dihydrophthalazin-1-yl)methyl)benzoyl)piperazin-1-yl)-6-oxohexyl)(methyl)amino)phenyl)-13-methyl-3-oxo-2,3,6,7,8,11,12,13,14,15,16,17-dodecahydro-1H-cyclopenta[a]phenanthren-17-yl acetate]: the IC50 is 100 to 1000 nM in experiment [1] (setting [4]) and < 10 nM in experiment [2] (setting [5]).

Take `C[C@]12CC[C@H]3[C@@H](CCC4=CC(=O)CC[C@@]43C)[C@@H]1CC[C@@H]2C(=O)COCCCCCC(=O)N1CCN(C(=O)c2cc(Cc3n[nH]c(=O)c4ccccc34)ccc2F)CC1` [Compound 1386, 4-(3-(4-(6-(2-((8S,9S,10R,13S,14S,17S)-10,13-dimethyl-3-oxo-2,3,6,7,8,9,10,11,12,13,14,15,16,17-tetradecahydro-1H-cyclopenta[a]phenanthren-17-yl)-2-oxoethoxy)hexanoyl)piperazine-1-carbonyl)-4-fluorobenzyl)phthalazin-1(2H)-one]: the IC50 in experiment [1] (setting [4]) was in the range of 100 to 1000 nM; in experiment [2] (setting [5]), 10 to 100 nM.

On to `Cn1ncnc1C1c2n[nH]c(=O)c3cc(F)cc(c23)N[C@@H]1c1ccc(NC(=O)CCCCCO[C@@H]2CC[C@H]3[C@@H]4CC[C@H]5CCCC[C@]5(C)[C@H]4CC[C@]23C)cc1` (stereo partly drawn) [Compound 1128, 6-((5R,8R,9S,10S,13S,14S,17R)-10,13-dimethylhexadecahydro-1H-cyclopenta[a]phenanthren-17-yloxy)-N-(4-((8S)-5-fluoro-9-(1-methyl-1H-1,2,4-triazol-5-yl)-3-oxo-3,7,8,9-tetrahydro-2H-pyrido[4,3,2-de]phthalazin-8-yl)phenyl)hexanamide], for which the IC50 in experiment [1] (setting [3]) lay in the range of 1000 to 10000 nM; in experiment [2] (Table 7, 3H-R1881 1 nM, read-out: AR binding) it was 1000 to 10000 nM.
